Test results taken from patent publication US20100119483A1, “PEPTIDE VIRAL ENTRY INHIBITORS” (Schering Corporation, priority 2004, published 2010).
“And” between values parts separate entries of the source, which are not always exact repeats. Equal entries are not always repeated.

Tested on: HCV pseudoparticles
Test: HCV pseudoparticle (HCVpp) entry assay in Huh7 hepatoma cells, luciferase readout
Type: cell-based, hepatitis C virus
Conditions: for % of control at ~30 uM: percentage of hepatitis C virus cellular entry at 30 μM peptide vs uninhibited control
Summary of the method: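 Huh7 cells were pre-treated with peptide for 1 h at 37 °C before exposure to HCV E1/E2-pseudotyped HIV luciferase particles made in 293T cells, followed by 72 h culture and luciferase readout. Peptides were tested at 10 points, 3-fold, from 100 ug/ml; particles lacking envelope served as non-specific entry control.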

[1] = 0.1 nM of peptide (printed for three rows), two values per peptide and row
[2] = 0.3 nM of peptide, two values per peptide
[3] = 1 nM of peptide, two values per peptide
[4] = 3 nM of peptide, two values per peptide
[5] = 10 nM of peptide, two values per peptide
[6] = 30 nM of peptide, two values per peptide
[7] = 100 nM of peptide, two values per peptide
[8] = 300 nM of peptide, two values per peptide
[9] = 10000 nM of peptide, two values per peptide
[10] = 30000 nM of peptide, two values per peptide

| Substance | % control (HCVpp entry), lysine scanning [1] | % control (HCVpp entry), lysine scanning [2] | % control (HCVpp entry), lysine scanning [3] | % control (HCVpp entry), lysine scanning [4] | % control (HCVpp entry), lysine scanning [5] | % control (HCVpp entry), lysine scanning [6] | % control (HCVpp entry), lysine scanning [7] | % control (HCVpp entry), lysine scanning [8] | % control (HCVpp entry), lysine scanning [9] | % control (HCVpp entry), alanine scanning [1] | % control (HCVpp entry), alanine scanning [2] | % control (HCVpp entry), alanine scanning [3] | % control (HCVpp entry), alanine scanning [4] | % control (HCVpp entry), alanine scanning [5] | % control (HCVpp entry), alanine scanning [6] | % control (HCVpp entry), alanine scanning [7] | % control (HCVpp entry), alanine scanning [8] | % control (HCVpp entry), alanine scanning [9] | % of control at ~30 uM [%] | other results |
| --- | --- | --- | --- | --- | --- | --- | --- | --- | --- | --- | --- | --- | --- | --- | --- | --- | --- | --- | --- | --- |
| A-I-K-W-E-Y-K-L-L-L-F-L-L (AIKWEYKLLLFLL; HCV peptide) [SEQ ID NO: 131] | 97 % control and 80 % control and 94 % control and 96 % control and 113 % control | 105 % control and 81 % control | 85 % control and 68 % control | 71 % control and 85 % control | 74 % control and 66 % control | 71 % control and 68 % control | 49 % control and 62 % control | 29 % control and 42 % control | 16 % control and 14 % control |  |  |  |  |  |  |  |  |  |  | % control (HCVpp entry), lysine scanning [10]: 30 % control and 44 % control |
| A-I-K-W-E-Y-V-L-L-L-P-L-L (AIKWEYVLLLPLL; HCV peptide) [SEQ ID NO: 125] |  |  |  |  |  |  |  |  |  |  |  |  |  |  |  |  |  |  |  | % control (HCVpp entry), proline scanning [1]: 99 % control and 91 % control and 92 % control and 111 % control and 101 % control and 95 % control; % control (HCVpp entry), proline scanning [2]: 104 % control; % control (HCVpp entry), proline scanning [3]: 99 % control and 75 % control; % control (HCVpp entry), proline scanning [4]: 82 % control and 85 % control; % control (HCVpp entry), proline scanning [5]: 109 % control and 97 % control; % control (HCVpp entry), proline scanning [6]: 102 % control and 80 % control; % control (HCVpp entry), proline scanning [7]: 58 % control and 60 % control; % control (HCVpp entry), proline scanning [8]: 76 % control and 63 % control; % control (HCVpp entry), proline scanning [9]: 54 % control and 73 % control; % control (HCVpp entry), proline scanning [10]: 59 % control and 68 % control |
| A-I-K-W-E-Y-V-L-K-L-F-L-L (AIKWEYVLKLFLL; HCV peptide) [SEQ ID NO: 133] | 78 % control and 85 % control and 96 % control and 101 % control and 87 % control and 116 % control | 108 % control and 78 % control | 96 % control and 82 % control | 95 % control and 79 % control | 77 % control and 113 % control | 80 % control and 68 % control | 75 % control and 60 % control | 41 % control and 56 % control | 24 % control and 39 % control |  |  |  |  |  |  |  |  |  |  |  |
| A-I-K-W-E-Y-V-L-L-L-F-L-A [SEQ ID NO: 97] |  |  |  |  |  |  |  |  |  | 80 % control and 101 % control and 105 % control and 102 % control and 95 % control and 97 % control | 72 % control and 102 % control | 76 % control and 92 % control | 72 % control and 92 % control | 79 % control and 69 % control | 55 % control and 80 % control | 46 % control and 51 % control | 30 % control and 47 % control | 19 % control and 37 % control | 24 | % control (HCVpp entry), alanine scanning [10]: 53 % control and 50 % control |
| A-I-K-W-E-Y-V-K-L-L-F-L-L (AIKWEYVKLLFLL; HCV peptide) [SEQ ID NO: 132] | 73 % control and 89 % control and 95 % control and 92 % control and 117 % control and 96 % control | 100 % control and 71 % control | 67 % control and 79 % control | 78 % control and 75 % control | 54 % control and 56 % control | 71 % control and 89 % control | 59 % control and 62 % control | 46 % control and 44 % control | 49 % control and 50 % control |  |  |  |  |  |  |  |  |  |  | % control (HCVpp entry), lysine scanning [10]: 42 % control and 41 % control |
| A-I-K-W-E-Y-V-A-L-L-F-L-L (AIKWEYVALLFLL; HCV peptide) [SEQ ID NO: 93, Ala-scan] |  |  |  |  |  |  |  |  |  | 91 % control and 83 % control and 80 % control and 104 % control and 134 % control and 81 % control | 86 % control and 105 % control | 85 % control and 87 % control | 78 % control and 87 % control | 71 % control and 67 % control | 58 % control and 51 % control | 47 % control and 42 % control | 32 % control and 27 % control | 41 % control and 32 % control | 13 | % control (HCVpp entry), alanine scanning [10]: 32 % control |
| A-I-K-K-E-Y-V-L-L-L-F-L-L (AIKKEYVLLLFLL; HCV peptide) [SEQ ID NO: 128] | 80 % control and 86 % control and 107 % control and 102 % control and 87 % control and 103 % control | 64 % control and 88 % control | 99 % control and 72 % control | 84 % control and 81 % control | 63 % control and 92 % control | 59 % control and 55 % control | 52 % control and 46 % control | 22 % control and 28 % control | 7 % control and 4 % control |  |  |  |  |  |  |  |  |  |  |  |
| A-I-K-W-E-A-V-L-L-L-F-L-L (AIKWEAVLLLFLL; HCV peptide) [SEQ ID NO: 91, Ala-scan] |  |  |  |  |  |  |  |  |  | 101 % control and 73 % control and 107 % control and 89 % control and 93 % control and 111 % control | 81 % control and 84 % control | 120 % control and 102 % control | 86 % control and 110 % control | 59 % control and 66 % control | 49 % control and 48 % control | 35 % control and 32 % control | 17 % control and 27 % control | 30 % control and 15 % control | 16 | % control (HCVpp entry), alanine scanning [10]: 12 % control and 18 % control |
| K-W-E-Y-V-L-L-L-F-L-L (KWEYVLLLFLL; HCV peptide) [SEQ ID NO: 108, N-terminal truncation] |  |  |  |  |  |  |  |  |  |  |  |  |  |  |  |  |  |  |  | HCVpp % inh (truncated peptides tested at 50 uM in 1% DMSO): 78% |
| A-I-K-A-E-Y-V-L-L-L-F-L-L (AIKAEYVLLLFLL; HCV peptide) [SEQ ID NO: 89, Ala-scan] |  |  |  |  |  |  |  |  |  | 76 % control and 84 % control and 95 % control and 104 % control and 105 % control and 96 % control | 64 % control and 71 % control | 96 % control and 85 % control | 76 % control and 63 % control | 57 % control and 63 % control | 71 % control and 66 % control | 38 % control and 41 % control | 27 % control and 24 % control | 17 % control and 24 % control | 8 |  |
| A-I-P-W-E-Y-V-L-L-L-F-L-L (AIPWEYVLLLFLL; HCV peptide) [SEQ ID NO: 117] |  |  |  |  |  |  |  |  |  |  |  |  |  |  |  |  |  |  |  | % control (HCVpp entry), proline scanning [2]: 66 % control and 117 % control; % control (HCVpp entry), proline scanning [3]: 68 % control and 87 % control; % control (HCVpp entry), proline scanning [4]: 89 % control and 66 % control; % control (HCVpp entry), proline scanning [5]: 75 % control; % control (HCVpp entry), proline scanning [6]: 58 % control and 71 % control; % control (HCVpp entry), proline scanning [7]: 38 % control and 54 % control; % control (HCVpp entry), proline scanning [8]: 48 % control and 41 % control; % control (HCVpp entry), proline scanning [9]: 54 % control and 31 % control |
| A-I-K-W-E-Y-V-L-L-L-A-L-L (AIKWEYVLLLALL; HCV peptide) [SEQ ID NO: 95, Ala-scan] |  |  |  |  |  |  |  |  |  | 82 % control and 89 % control and 76 % control and 114 % control and 97 % control and 113 % control | 70 % control and 62 % control | 72 % control and 91 % control | 52 % control and 85 % control | 47 % control and 64 % control |  | 53 % control and 35 % control | 13 % control and 18 % control | 15 % control and 25 % control | 8 |  |
| A-I-K-W-E-Y-V-L-L-P-F-L-L (AIKWEYVLLPFLL; HCV peptide) [SEQ ID NO: 124] |  |  |  |  |  |  |  |  |  |  |  |  |  |  |  |  |  |  |  | % control (HCVpp entry), proline scanning [1]: 87 % control and 98 % control and 89 % control and 104 % control and 109 % control and 97 % control; % control (HCVpp entry), proline scanning [2]: 74 % control and 88 % control; % control (HCVpp entry), proline scanning [3]: 89 % control and 102 % control; % control (HCVpp entry), proline scanning [4]: 80 % control and 86 % control; % control (HCVpp entry), proline scanning [5]: 67 % control and 102 % control; % control (HCVpp entry), proline scanning [6]: 48 % control and 71 % control; % control (HCVpp entry), proline scanning [7]: 66 % control and 83 % control; % control (HCVpp entry), proline scanning [8]: 85 % control and 68 % control; % control (HCVpp entry), proline scanning [9]: 85 % control and 60 % control; % control (HCVpp entry), proline scanning [10]: 98 % control and 67 % control |
